Source: patent US20130072563A1, “PERACID AND 2-HYDROXY ORGANIC ACID COMPOSITIONS AND METHODS FOR SANITATION AND DISEASE PREVENTION” (Fresh Express Incorporated, priority 2009, published 2013)

Legend:
[1] = cited from earlier work
E. coli K12 [2] = test: Attached cells challenge test, Romaine; type: cell-based
E. coli K12 [3] = test: Attached cells challenge test, Spinach; type: cell-based; conditions: LA 0.0%
[4] = test system: Lactobacillus plantarum 14917; test: Suspended Cells Challenge Test at 20 s residence time with no surfactant; type: cell-based; conditions: Lactic Acid 0 ppm
Experimental: The experimental treatment groups were tap water, chlorinated water, a FE sanitizer wash water (FE, FE sanitizer, a solution of peroxyacetic acid and lactic acid, as further specified in a given experiment).
The experimental protocol was as follows: • 1. Transfer 1.00 mL of a ˜10^8cfu/g Lactobacillus plantarum (ATCC 14917) stock culture into a test tube containing 9.00 mL of treatment test solution • 2. Vortex the mixture for 15 s • 3. Stop the reaction by transferring 1 mL of the treated samples to 9 mL of Butterfield Phosphate Buffer • 4. Enumerate viable residual cells through serial dilutions and spread plating with 1-mL transfers • 5. […] Repeat Steps 1 to 5 two more times • 7. Repeat Steps 1 to 6 with flume water • 8. Repeat Steps 1 to 6 with chlorinated water • 9. Repeat Steps 1 to 8 with various levels of FE • 10. Repeat Steps 1 to 8 with various levels of lactic acid • 11. Repeat Steps 1 to 8 with various levels of peroxyacetic acid • 12. Repeat Steps 1 to 11 with Listeria innocua (ATCC33090)
Estimation of Log Reductions • 1. Log […] is a measure of the percent of microorganisms that are inactivated during the disinfection process and is defined as Log Inactivation=Log10 (No/NT) where No is the initial influent concentration of viable microorganisms; NT is the concentration of surviving microorganisms. As M cfu/g=microbial population of stock culture; W cfu/g=microbial population in solution of “Water Treatment” and X cfu/g=microbial population in solution of “X Treatment,” the Log reduction caused by “Treatment X”=Log (w/x)

[5] = Depletion of sanitizer wash water by diced Romaine Lettuce, commercial scale test; type: physicochemical; conditions: 38 to 40 F.
Experimental: (§1) These experiments evaluated the consumption or depletion of peroxyacetic acid when used to wash produce.
(§2) Treatments: chlorinated water, peroxyacetic acid wash water, and FE sanitizer wash water
(§3) Temperature: 38 to 40° F.
(§4) Produce: 1.5″×2″ diced Romaine lettuce
(§5) A. Determination of the amount of Romaine Lettuce that could deplete 600 gallons of peroxyacetic acid wash water. • 1. Perform full sanitization on the Pilot Line System. • 2. Fill the 2nd flume tank, 2″ reservoir, and 2″ filtering tank with tap water. • 3. Recycle the water through the system until the water in the system is being cooled down to 40° F. • 4. Calibrate the Prominent System and use the Prominent System to monitor the concentration of PAA in the wash water. • 5. Add the PAA to the 2nd filtering tank until the target processing limit is reached. • 6. Dice the Romaine Lettuce via the translicer. • 7. Collect the 2″33 2″ diced Romaine in totes. • 8. Record the weight of each tote prior to transferring it to the 2nd flume. • 9. Collect three untreated bags of Romaine Lettuce from each bin (1 top, 1 middle, and 1 bottom). • 10. Collect three treated bags of Romaine Lettuce at the end of F2 (1 beginning, 1 middle, and 1 end of the bin). • 11. Place white totes at the bottom of the locations with water spill. Return the spilt water back into the flume tank as needed. • 12. Place white totes at the bottom outlets of the centrifuge to collect liquid that would be spin off from the leaves. Return the collected water back into the flume tank as needed. • 13. Repeat Steps ‘e’ to ‘k’ for the rest of the bins till the FE concentrations fall below the lowest processing limits. • 14. Enumerate the microbial population (APC and Yeast and mold) on the collected samples.
B. Determination of the Amount of Romaine Lettuce that Could Deplete 600 gallons of FE Wash Water • 1. Perform full sanitization on the Pilot Line System. • 2. Fill the flume tank, 2″ flume tank, 1st reservoir, 2nd reservoir, 1st filtering tank, and 2nd filtering tank with tap water. • 3. Recycle the water through the system until the water in the system is being cooled down to 40° F. • 4. Switch on the by-passes for the 1st and 2″ flume tank systems so that water would not be going through the filtering systems but only recycling from the flume tank to its associate reservoir continuously. • 5. Add the chemical ingredients to both tank until the target processing limit is reached. • 6. Verify the concentration of FE by the probe of the Prominent Monitoring System at the 1st flume tank (F1), 1^St Reservoir (R1), 2nd Flume tank (F2), and the 2nd Reservoir (R2). • 7. Collect water samples from F1 and F2. • 8. Assemble the Romaine Lettuce Bins next to the dumpster. • 9. Transfer whole Romaine Lettuce leaves from the bin to the conveyor. • 10. Ensure that the lid above the F1 is closed. Turn the “ON/OFF” switch of the translicer to “ON”. • 11. Turn the conveyor for transferring leaves into the translicer to “ON”. • 12. Ensure that the chopped Romaine are delivered evenly into the flume tank without aggregation and clumping. • 13. Collect three untreated bags of Romaine Lettuce from each bin (1 top, 1 middle, and 1 bottom). • 14. Collect three treated bags of Romaine Lettuce at the end of F2 (1 beginning, 1 middle, and 1 end of the bin). • 15. Verify the pH, temperature, and the concentration of FE at the 1st flume tank (F1), 1st Reservoir (R1), 2nd Flume tank (F2), and the 2nd Reservoir (R2) before and after processing a bin. • 16. Place white totes at the bottom of the locations with water spill. Return the spilt water back into the flume tank as needed. • 17. Place white totes at the bottom outlets of the centrifuge to collect liquid that would be spin off from the leaves. Return the collected water back into the flume tank as needed. • 18. Repeat Steps ‘e’ to ‘o’ for the rest of the bins till the FE concentrations fall below the lowest processing limits. • 19. […]

[6] = 40° C.; cited from earlier work
[7] = test system: indigenous microorganisms (Aerobic Plate Counts); test: Reduction of indigenous microorganisms on Romaine, commercial scale test; type: cell-based; conditions: 73-84 ppm peroxyacetic acid, no lactic acid
Experimental: as §1, §2, §3, §4
as §5, with “Place white totes at the bottom outlets of the centrifuge to collect liquid that would be spin off from the leaves. Return the collected water back into the flume tank as needed. • 13. Repeat Steps ‘e’ to ‘k’ for the rest of the bins till the FE concentrations fall below the lowest processing limits. • 14. Enumerate the microbial population (APC and Yeast and mold) on the collected samples.” left out

[8] = 600 gallons, Diced Romaine Lettuce
[9] = Cumulative Wt. of Diced Romaine added 0.0 lb, 600 gallons
[10] = Cumulative Wt. of Diced Romaine added 55.2 lb, 600 gallons
[11] = Cumulative Wt. of Diced Romaine added 114.9 lb, 600 gallons
[12] = Cumulative Wt. of Diced Romaine added 157.2 lb, 600 gallons
[13] = Cumulative Wt. of Diced Romaine added 207.7 lb, 600 gallons
[14] = Cumulative Wt. of Diced Romaine added 272.9 lb, 600 gallons
[15] = Cumulative Wt. of Diced Romaine added 325.8 lb, 600 gallons
[16] = Cumulative Wt. of Diced Romaine added 371.3 lb, 600 gallons
[17] = Cumulative Wt. of Diced Romaine added 424.7 lb, 600 gallons
[18] = Cumulative Wt. of Diced Romaine added 502.6 lb, 600 gallons
[19] = Cumulative Wt. of Diced Romaine added 565.0 lb, 600 gallons
[20] = Cumulative Wt. of Diced Romaine added 629.0 lb, 600 gallons
[21] = Cumulative Wt. of Diced Romaine added 697.1 lb, 600 gallons
[22] = Cumulative Wt. of Diced Romaine added 762.7 lb, 600 gallons
[23] = Cumulative Wt. of Diced Romaine added 826.6 lb, 600 gallons
[24] = Cumulative Wt. of Diced Romaine added 896.2 lb, 600 gallons
[25] = Cumulative Wt. of Diced Romaine added 949.9 lb, 600 gallons

## [O][Cl+][O-] [Chlorine Dioxide]
[1]
  Oxidation Capacity: 1.57 eV

## CC(O)C(=O)O (stereo not shown) [Lactic acid, lactic acid]
E. coli K12 [2]; PAA 0 ppm, LA 1.2%
  Log reduction, attached cells: 1.28

## O=[O+][O-] [Ozone]
[1]
  Oxidation Capacity: 2.07 eV

## CC(=O)OO [Peroxyacetic acid, peroxyacetic acid]
E. coli K12 [2]; PAA 80 ppm, LA 0.0%
  Log reduction, attached cells: 1.18
[1]
  Oxidation Capacity: 1.81 eV
E. coli K12 [3]; PAA 70 ppm
  Log reduction, attached cells: 1.33
E. coli K12 [3]; PAA 80 ppm
  Log reduction, attached cells: 2.46
[4]; Peroxyacetic acid 70 ppm
  log reduction of suspended cells: 4.52 log10
[4]; Peroxyacetic acid 75 ppm
  log reduction of suspended cells: 5.59 log10
[4]; Peroxyacetic acid 80 ppm
  log reduction of suspended cells: 5.59 log10
[5]; 600 gallons of sanitizer
  Pounds of Romaine treated: 949.90 lb
[5]; 600 gallons
  Depletion of PA: 0.000013 lb of PA per lb of Romaine
[5]; [8]
  Amount of PA (PAA) consumed: 11.7 ppm
  Pounds of PA (PAA) consumed: 0.01208 lb
[5]; [9]
  PA (ppm) in wash water: 84.8 ppm
  Peroxide (ppm) in wash water: 7.5 ppm
[5]; [10]
  PA (ppm) in wash water: 83.3 ppm
  Peroxide (ppm) in wash water: 7.4 ppm
[5]; [11]
  PA (ppm) in wash water: 82.7 ppm
  Peroxide (ppm) in wash water: 7.4 ppm
[5]; [12]
  PA (ppm) in wash water: 82.4 ppm
  Peroxide (ppm) in wash water: 7.4 ppm
[5]; [13]
  PA (ppm) in wash water: 82.0 ppm
  Peroxide (ppm) in wash water: 7.4 ppm
[5]; [14]
  PA (ppm) in wash water: 81.4 ppm
  Peroxide (ppm) in wash water: 7.3 ppm
[5]; [15]
  PA (ppm) in wash water: 81.0 ppm
  Peroxide (ppm) in wash water: 7.3 ppm
[5]; [16]
  PA (ppm) in wash water: 80.5 ppm
  Peroxide (ppm) in wash water: 7.1 ppm
[5]; [17]
  PA (ppm) in wash water: 79.6 ppm
  Peroxide (ppm) in wash water: 6.9 ppm
[5]; [18]
  PA (ppm) in wash water: 78.7 ppm
  Peroxide (ppm) in wash water: 6.9 ppm
[5]; [19]
  PA (ppm) in wash water: 78.4 ppm
  Peroxide (ppm) in wash water: 6.9 ppm
[5]; [20]
  PA (ppm) in wash water: 77.7 ppm
  Peroxide (ppm) in wash water: 6.4 ppm
[5]; [21]
  PA (ppm) in wash water: 76.1 ppm
  Peroxide (ppm) in wash water: 6.4 ppm
[5]; [22]
  PA (ppm) in wash water: 75.4 ppm
  Peroxide (ppm) in wash water: 6.1 ppm
[5]; [23]
  PA (ppm) in wash water: 74.7 ppm
  Peroxide (ppm) in wash water: 6.0 ppm
[5]; [24]
  PA (ppm) in wash water: 73.7 ppm
  Peroxide (ppm) in wash water: 6.0 ppm
[5]; [25]
  PA (ppm) in wash water: 73.1 ppm
  Peroxide (ppm) in wash water: 6.0 ppm
[6]
  apparent equilibrium constant Kap: about 2.21
[7]
  Aerobic Plate Counts after wash: 2.7 Log cfu/g
  Log Reduction of indigenous microorganisms: 0.7 log10

## OCl [Sodium hypochlorite (Chlorine bleach), Sodium hypochlorite]
[1]
  Oxidation Capacity: 1.36 eV
